From ChEMBL document CHEMBL1139547, “Anesthetic potency of two novel synthetic polyhydric alkanols longer than the n-alkanol cutoff: evidence for a bilayer-mediated mechanism of anesthesia?” (J Med Chem, 2005)

Assay: Effective concentration for phenotypic endpoint in tadpoles
Parameters: species or system frog, Tadpole

`CCCCCCO` [1-HEXANOL] gave an EC50 of about 700 µM.
